Reference: PubChem BioAssay AID1963873 (Molecular Pharmacology Branch, DTP, NCI, 2024)

Test system: 276233-004-R-J1-PDC KRAS spheroids with HUVEC/MSC, viability
Assay: Anticancer human tumor 276233-004-R-J1-PDC patient-derived colon adenocarcinoma cell line growth inhibition [KRAS2]
Settings: for viability, T/C: stronger effect = lower value
Summary of the method: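 KRAS-mutant tumor cells were grown as spheroids with HUVEC endothelial cells and human MSCs as stroma. Targeted agents were tested alone and with KRAS pathway inhibitors. Doses started at or near clinical Cmax, or 10 microM, descending half-log.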

[1] = curve of first compound, second compound 0.1 µM
[2] = curve of first compound, second compound 0.316 µM
[3] = curve of first compound, second compound 1 µM
[4] = curve of first compound, second compound 3.16 µM
[5] = second compound 0.1 µM, first compound 0.0316 µM
[6] = second compound 0.1 µM, first compound 0.1 µM
[7] = second compound 0.1 µM, first compound 0.316 µM
[8] = second compound 0.1 µM, first compound 1 µM
[9] = second compound 0.1 µM, first compound 3.16 µM
[10] = second compound 0.1 µM, first compound 10 µM
[11] = second compound 0.316 µM, first compound 0.0316 µM
[12] = second compound 0.316 µM, first compound 0.1 µM
[13] = second compound 0.316 µM, first compound 0.316 µM
[14] = second compound 0.316 µM, first compound 1 µM
[15] = second compound 0.316 µM, first compound 3.16 µM
[16] = second compound 0.316 µM, first compound 10 µM
[17] = second compound 1 µM, first compound 0.0316 µM
[18] = second compound 1 µM, first compound 0.1 µM
[19] = second compound 1 µM, first compound 0.316 µM
[20] = second compound 1 µM, first compound 1 µM
[21] = second compound 1 µM, first compound 3.16 µM
[22] = second compound 1 µM, first compound 10 µM
[23] = second compound 3.16 µM, first compound 0.0316 µM
[24] = second compound 3.16 µM, first compound 0.1 µM
[25] = second compound 3.16 µM, first compound 0.316 µM
[26] = second compound 3.16 µM, first compound 1 µM
[27] = second compound 3.16 µM, first compound 3.16 µM
[28] = second compound 3.16 µM, first compound 10 µM
[29] = curve of first compound, second compound 10 µM
[30] = second compound 10 µM, first compound 0.0316 µM
[31] = second compound 10 µM, first compound 0.1 µM
[32] = second compound 10 µM, first compound 0.316 µM
[33] = second compound 10 µM, first compound 1 µM
[34] = second compound 10 µM, first compound 3.16 µM
[35] = second compound 10 µM, first compound 10 µM
[36] = compound alone, run of 07/19/2021
[37] = compound alone, run of 07/26/2021
[38] = second compound 0.1 µM, first compound 0.00316 µM
[39] = second compound 0.1 µM, first compound 0.01 µM
[40] = second compound 0.316 µM, first compound 0.00316 µM
[41] = second compound 0.316 µM, first compound 0.01 µM
[42] = second compound 1 µM, first compound 0.00316 µM
[43] = second compound 1 µM, first compound 0.01 µM
[44] = second compound 3.16 µM, first compound 0.00316 µM
[45] = second compound 3.16 µM, first compound 0.01 µM
[46] = second compound 10 µM, first compound 0.00316 µM
[47] = second compound 10 µM, first compound 0.01 µM
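Note: cells exposed to agents for seven days before viability read.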
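Throughout, for viability, T/C: 100% = DMSO vehicle control wells and lower values mean fewer viable cells.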

CC1OCC2(CCN(c3cnc(Sc4ccnc(N)c4Cl)c(N)n3)CC2)C1N (stereo unspecified) + C=CC(=O)N1CCN(c2nc(OCC3CCCN3C)nc3c2CCN(c2cccc4cccc(C)c24)C3)CC1CC#N
IC50 (curve of first compound, second compound 0.0316 µM): > 10 µM
IC50 [1]: > 10 µM
IC50 [2]: > 10 µM
IC50 [3]: 9.49 µM
IC50 [4]: 0.521 µM
viability, T/C (second compound 0.0316 µM, first compound 0.0316 µM): 105%
viability, T/C (second compound 0.0316 µM, first compound 0.1 µM): 90.5%
viability, T/C (second compound 0.0316 µM, first compound 0.316 µM): 91.2%
viability, T/C (second compound 0.0316 µM, first compound 1 µM): 85.7%
viability, T/C (second compound 0.0316 µM, first compound 3.16 µM): 70.2%
viability, T/C (second compound 0.0316 µM, first compound 10 µM): 59.8%
viability, T/C [5]: 98.2%
viability, T/C [6]: 85%
viability, T/C [7]: 81.5%
viability, T/C [8]: 69.3%
viability, T/C [9]: 68.7%
viability, T/C [10]: 56.3%
viability, T/C [11]: 102%
viability, T/C [12]: 98.7%
viability, T/C [13]: 83.4%
viability, T/C [14]: 76.7%
viability, T/C [15]: 67%
viability, T/C [16]: 55.3%
viability, T/C [17]: 98.2%
viability, T/C [18]: 84.7%
viability, T/C [19]: 81.2%
viability, T/C [20]: 83.5%
viability, T/C [21]: 63.5%
viability, T/C [22]: 49%
viability, T/C [23]: 69.1%
viability, T/C [24]: 60.4%
viability, T/C [25]: 58.2%
viability, T/C [26]: 39.7%
viability, T/C [27]: 35.9%
viability, T/C [28]: 39%

COC(=O)c1ccc2c(C(=Nc3ccc(N(C)C(=O)CN4CCN(C)CC4)cc3)c3ccccc3)c(O)[nH]c2c1 + C=CC(=O)N1CCN(c2nc(=O)n(-c3c(C)ccnc3C(C)C)c3nc(-c4c(O)cccc4F)c(F)cc23)C(C)C1
IC50 [1]: > 10 µM
IC50 [2]: > 10 µM
IC50 [3]: > 10 µM
IC50 [4]: > 10 µM
IC50 [29]: 3.36 µM
viability, T/C [5]: 104%
viability, T/C [6]: 72.4%
viability, T/C [7]: 71.5%
viability, T/C [8]: 92.8%
viability, T/C [9]: 91.8%
viability, T/C [10]: 97.2%
viability, T/C [11]: 105%
viability, T/C [12]: 80.5%
viability, T/C [13]: 90%
viability, T/C [14]: 83%
viability, T/C [15]: 91.1%
viability, T/C [16]: 92.3%
viability, T/C [17]: 106%
viability, T/C [18]: 87.5%
viability, T/C [19]: 64.8%
viability, T/C [20]: 96.7%
viability, T/C [21]: 96%
viability, T/C [22]: 88.3%
viability, T/C [23]: 93.9%
viability, T/C [24]: 78.1%
viability, T/C [25]: 81.1%
viability, T/C [26]: 63.3%
viability, T/C [27]: 89.5%
viability, T/C [28]: 95.5%
viability, T/C [30]: 78.2%
viability, T/C [31]: 73.2%
viability, T/C [32]: 61.2%
viability, T/C [33]: 82.2%
viability, T/C [34]: 51.8%
viability, T/C [35]: 16.8%

CC(=O)OC12COC1CC(O)C1(C)C(=O)C(O)C3=C(C)C(OC(=O)C(O)C(NC(=O)OC(C)(C)C)c4ccccc4)CC(O)(C(OC(=O)c4ccccc4)C21)C3(C)C (stereo unspecified)
viability, T/C (compound 0.01 µM): 90.3% [middle of 5 runs]
viability, T/C (compound 0.316 µM): 88.6% [middle of 5 runs]
viability, T/C (compound 1 µM): 94.5% [middle of 5 runs]
viability, T/C (compound 3.16 µM): 92.1% [middle of 5 runs]
IC50 (curve of compound): > 3.16 µM

C=CC(=O)N1CCN(c2nc(=O)n(-c3c(C)ccnc3C(C)C)c3nc(-c4c(O)cccc4F)c(F)cc23)C(C)C1 (stereo unspecified)
IC50 (compound alone, run of 07/12/2021): > 10 µM
IC50 [36]: > 10 µM
IC50 [37]: > 10 µM

CCN1CCN(Cc2ccc(Nc3ncc(F)c(-c4cc(F)c5nc(C)n(C(C)C)c5c4)n3)nc2)CC1 + CNCc1ccccc1-c1csc(C(C)Nc2nc(C)nc3cc(OC)c(OC)cc23)c1
IC50 [1]: > 1 µM
IC50 [2]: > 1 µM
IC50 [3]: 0.54 µM
IC50 [4]: < 0.00316 µM
IC50 [29]: < 0.00316 µM
viability, T/C [38]: 129%
viability, T/C [39]: 106%
viability, T/C [5]: 87.1%
viability, T/C [6]: 92.1%
viability, T/C [7]: 126%
viability, T/C [8]: 115%
viability, T/C [40]: 90.2%
viability, T/C [41]: 111%
viability, T/C [11]: 95.3%
viability, T/C [12]: 107%
viability, T/C [13]: 104%
viability, T/C [14]: 116%
viability, T/C [42]: 92.2%
viability, T/C [43]: 96.9%
viability, T/C [17]: 76.3%
viability, T/C [18]: 76.2%
viability, T/C [19]: 80.7%
viability, T/C [20]: 16%
viability, T/C [44]: 0.71%
viability, T/C [45]: 0.53%
viability, T/C [23]: 0.51%
viability, T/C [24]: 0.41%
viability, T/C [25]: 1.45%
viability, T/C [26]: 0.72%
viability, T/C [46]: 0.81%
viability, T/C [47]: 1.33%
viability, T/C [30]: 0.33%
viability, T/C [31]: 0.21%
viability, T/C [32]: 0.22%
viability, T/C [33]: 0.3%

CNCc1ccccc1-c1csc(C(C)Nc2nc(C)nc3cc(OC)c(OC)cc23)c1 (stereo unspecified)
viability, T/C (compound 10 µM): 1.13% [middle of 15 runs]
IC50 [36]: 1.25 µM [middle of 4 runs]
IC50 [37]: 1.67 µM [middle of 5 runs]

CC(=O)Nc1cccc(-n2c(=O)n(C3CC3)c(=O)c3c(Nc4ccc(I)cc4F)n(C)c(=O)c(C)c32)c1 + CC1OCC2(CCN(c3cnc(Sc4ccnc(N)c4Cl)c(N)n3)CC2)C1N
IC50 [1]: 0.00428 µM
IC50 [2]: 0.00246 µM
IC50 [3]: 0.000405 µM
IC50 [4]: < 0.0001 µM
IC50 [29]: < 0.0001 µM
viability, T/C (second compound 0.1 µM, first compound 0.0001 µM): 78.4%
viability, T/C (second compound 0.1 µM, first compound 0.000316 µM): 87.2%
viability, T/C (second compound 0.1 µM, first compound 0.001 µM): 65.8%
viability, T/C [38]: 55.5%
viability, T/C [39]: 35.6%
viability, T/C [5]: 13.1%
viability, T/C (second compound 0.316 µM, first compound 0.0001 µM): 67%
viability, T/C (second compound 0.316 µM, first compound 0.000316 µM): 74.1%
viability, T/C (second compound 0.316 µM, first compound 0.001 µM): 61%
viability, T/C [40]: 45.5%
viability, T/C [41]: 28%
viability, T/C [11]: 13.5%
viability, T/C (second compound 1 µM, first compound 0.0001 µM): 57.4%
viability, T/C (second compound 1 µM, first compound 0.000316 µM): 55.4%
viability, T/C (second compound 1 µM, first compound 0.001 µM): 42.6%
viability, T/C [42]: 28.4%
viability, T/C [43]: 27.4%
viability, T/C [17]: 7.28%
viability, T/C (second compound 3.16 µM, first compound 0.0001 µM): 39.7%
viability, T/C (second compound 3.16 µM, first compound 0.000316 µM): 31.9%
viability, T/C (second compound 3.16 µM, first compound 0.001 µM): 23.3%
viability, T/C [44]: 12.7%
viability, T/C [45]: 9.04%
viability, T/C [23]: 5.79%
viability, T/C (second compound 10 µM, first compound 0.0001 µM): 31.4%
viability, T/C (second compound 10 µM, first compound 0.000316 µM): 23.7%
viability, T/C (second compound 10 µM, first compound 0.001 µM): 14.7%
viability, T/C [46]: 10.9%
viability, T/C [47]: 17.6%
viability, T/C [30]: 8.53%

CCNC(=O)CC1N=C(c2ccc(Cl)cc2)c2cc(OC)ccc2-n2c(C)nnc21 (stereo unspecified) + CC1OCC2(CCN(c3cnc(Sc4ccnc(N)c4Cl)c(N)n3)CC2)C1N
IC50 [1]: > 10 µM
IC50 [2]: 7.12 µM
IC50 [3]: 3.16 µM
IC50 [4]: 0.392 µM
IC50 [29]: 0.53 µM
viability, T/C [5]: 94.5%
viability, T/C [6]: 85.6%
viability, T/C [7]: 71.5%
viability, T/C [8]: 66.8%
viability, T/C [9]: 56.4%
viability, T/C [10]: 72.8%
viability, T/C [11]: 89%
viability, T/C [12]: 73.1%
viability, T/C [13]: 73.6%
viability, T/C [14]: 58.2%
viability, T/C [15]: 52.5%
viability, T/C [16]: 49.1%
viability, T/C [17]: 79.8%
viability, T/C [18]: 71.5%
viability, T/C [19]: 63.9%
viability, T/C [20]: 52.5%
viability, T/C [21]: 46.9%
viability, T/C [22]: 52.2%
viability, T/C [23]: 72.6%
viability, T/C [24]: 71.6%
viability, T/C [25]: 51.5%
viability, T/C [26]: 44.4%
viability, T/C [27]: 43.3%
viability, T/C [28]: 41.4%
viability, T/C [30]: 55%
viability, T/C [31]: 56.6%
viability, T/C [32]: 52.2%
viability, T/C [33]: 48.2%
viability, T/C [34]: 41.6%
viability, T/C [35]: 42.4%
